Laboratory results reported in paper PMC9804781, “Identification of a Novel Pseudo‐Natural Product Type IV IDO1 Inhibitor Chemotype” (Angewandte Chemie (International Ed. in English), 2022).

System: IDO1 protein levels
Assay: IDO1 protein levels (immunoblotting, In-Cell Western)
Format: cell-based
Settings: immunoblotting (HeLa, IFN-γ, 24 h) and in-Cell western
Experimental: Kit (QIAGEN, DE) following the manufacturer’s procedure. DNA was removed on column by […]
DNase digestion with RNase-free DNase Set (QIAGEN, DE) according to the manufacturer’s […]
instructions. Following the manufacturer’s protocol, cDNA templates were synthesized from […]
800 ng total RNA using the QuantiTect Reverse Transcription Kit (QIAGEN, DE).
The expression levels of the IDO1 gene and the reference GAPDH were assessed by real-time […]
quantitative PCR (qPCR). Therefore, 120 ng cDNA was amplified using 500 nM of gene-specific […]
primers and SsoAdvanced Universal SYBR Green Supermix (Bio-Rad Laboratories, DE) in a total […]
volume of 10 µL for 50 cycles using the CFX96 Touch™ Real-Time PCR Detection System (Bio- […]
Rad Laboratories, DE). Relative IDO1 expression levels were calculated using the ΔΔCt method […]
with GAPDH as reference gene[17] and represented using GraphPad Prism 9.0 (GraphPad […]
and homogenized by sonication. Protein concentration was determined using the DC Protein […]
11 µM rhIDO1 was incubated with compounds at indicated concentrations for 60 min at 37°C in 50 mM potassium phosphate buffer (16.9 mM K2HPO4, 33.1 mM, KH2PO4, pH 6.5). The thermal protein stability from 20°C to 90°C (1°C/min) was measured by means of the intrinsic tryptophan/tyrosine fluorescence using the Prometheus™ NT.48 (NanoTemper® Technologies, […]

CCOC(=O)C1=CC[C@](C(=O)OC)(c2cc3ccccc3n2C)N(S(=O)(=O)c2ccc(C)cc2)[C@@H]1C(=O)OC(C)(C)C [Compound 3d]
level of the IDO1 protein: did not alter the level of the IDO1 protein
